From patent US20250197387A1, “BCL-XL DEGRADERS AND USES THEREOF” (Kymera Therapeutics, Inc., priority 2021, published 2025)
pIC50: −log10 of the molar value.

Experiments:
Format in all cases: cell-based
BCL-XL [1] = molecular target: T1, BCL-XL (Homo sapiens, UniProt Q07817); assay: BCL-XL degradation assay, western blot in MOLT-4 cells, 16 h; conditions: western blot, MOLT-4 cells, 16 h; for Dmax: read-out: Bcl-xL WB in MOLT-4 degradation 16 h: Average Dmax %; for DC50: read-out: Bcl-xL WB in MOLT-4 degradation 16 h: Mean external-Abs DC50
T1 construct: endogenous in cells; host or cells: MOLT-4
Summary of the method: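 Infrared-imaged western blots quantified BCL-xL (normalised against beta-actin/GAPDH) after 16 hr, 37° C exposure of MOLT-4 cells to 0.02-10 μM compound; results given as DC50 and Dmax % bins.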

BCL-XL [2] = molecular target: T1, BCL-XL; assay: Bcl-xL ELISA degradation in MOLT-4 cells, 6 h; conditions: for DC50: read-out: Bcl-xL ELISA in MOLT-4 degradation 6 h: Mean external-Abs DC50
Method: The letter codes for BCL-XL DC50 include: A (<0.01 μM); B (0.01-0.1 μM); C (>[…]); D (>0.5-1.0 μM); and E (>1.0 μM). The letter codes for Dmax % include A (>75%); B (50 to 75%); C (<50%).

MOLT-4 cells = assay: CTG (CellTiter-Glo) cell viability assay, MOLT-4; conditions: Homo sapiens, MOLT-4, 72 h, 3 day incubation, read-out: CTG Cell Viability Assay - MOLT-4 3 day: Average external-IC50
Summary of the method: (§1)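 10,000 cells/well; 9 doses, 1:3 from 10 μM top; 0.2% DMSO; 3 d, 37 °C, 5% CO2; CTG luminescence; IC50 via 3-parameter logistic fit. Letter bins differ: Caki-2 C/D cut at 10.0 μM, MOLT-4 at 3.0 μM.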

Caki-2 cells = assay: CTG (CellTiter-Glo) cell viability assay, Caki-2; conditions: Homo sapiens, 72 h, 3 day incubation, read-out: CTG Chempartner - Caki-2 3 day: Average external-IC50
Summary of the method: as §1

T1 sequence (Q07817 whole entry): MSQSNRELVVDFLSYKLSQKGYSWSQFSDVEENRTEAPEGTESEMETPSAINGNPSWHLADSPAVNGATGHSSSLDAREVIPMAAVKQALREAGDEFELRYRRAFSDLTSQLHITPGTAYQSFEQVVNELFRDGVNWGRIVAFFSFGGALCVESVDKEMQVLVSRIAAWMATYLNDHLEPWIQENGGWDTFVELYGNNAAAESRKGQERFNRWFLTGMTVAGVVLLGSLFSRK

Compound | Dmax (BCL-XL [1]) | DC50 (BCL-XL [1]) | Dmax (BCL-XL [2]) | DC50 (BCL-XL [2]) | pIC50 (MOLT-4 cells) | pIC50 (Caki-2 cells)
C#Cc1ccc([C@H](CO)NC(=O)[C@@H]2C[C@@H](O)CN2C(=O)[C@@H](NC(=O)CCc2ccc(S(=O)(=O)NC(=O)c3nc(N4CCc5cccc(C(=O)Nc6nc7cccnc7s6)c5C4)ccc3-c3cnn(CC4CCCCC4)c3C)cc2)C(C)(C)C)cc1 [I-205] | > 75% | < 10 nM | > 75% | 10 to 100 nM | 6.00 to 7.00 | < 5.00
C#Cc1ccc(CNC(=O)[C@@H]2C[C@@H](O)CN2C(=O)[C@@H](NC(=O)CCCS(=O)(=O)NC(=O)c2nc(N(C)c3cc(C)c(Nc4nc5ccccc5s4)nn3)ccc2-c2cnn(CC3CCCCC3)c2C)C(C)(C)C)cc1 [I-340] | > 75% | 100 to 500 nM | 50 to 75% | 10 to 100 nM | 6.00 to 7.00 | < 5.00
C#Cc1ccc(CNC(=O)[C@@H]2C[C@@H](O)CN2C(=O)[C@@H](NC(=O)CCCCS(=O)(=O)NC(=O)c2nc(N(C)c3cc(C)c(Nc4nc5ccccc5s4)nn3)ccc2-c2cnn(CC3CCCCC3)c2C)C(C)(C)C)cc1 [I-345] | > 75% | 100 to 500 nM | 50 to 75% | 100 to 500 nM | 5.52 to 6.00 | < 5.00
Cc1ncsc1-c1ccc(CNC(=O)[C@@H]2C[C@@H](O)CN2C(=O)[C@@H](NC(=O)CCCS(=O)(=O)NC(=O)c2nc(N3CCc4cccc(C(=O)Nc5nc6cccnc6s5)c4C3)ccc2-c2cnn(CC3CCCCC3)c2C)C(C)(C)C)cc1 [I-351] | 50 to 75% | 100 to 500 nM | > 75% | 100 to 500 nM | < 5.52 | < 5.00
Cc1cc(N(C)c2ccc(-c3cnn(CC4CCCCC4)c3C)c(C(=O)NS(=O)(=O)CCCCC(=O)N[C@H](C(=O)N3C[C@H](O)C[C@H]3C(=O)N[C@@H](C)c3ccc(-c4scnc4C)cc3)C(C)(C)C)n2)nnc1Nc1nc2ccccc2s1 [I-353] | > 75% | 10 to 100 nM | > 75% | 100 to 500 nM | 5.52 to 6.00 | < 5.00
Cc1ncsc1-c1ccc(CNC(=O)[C@@H]2C[C@@H](O)CN2C(=O)[C@@H](NC(=O)CCOCCOCCOCCOCCOCCOCC#Cc2ccc(OCCCc3sc(N4CCc5cccc(C(=O)Nc6nc7ccccc7s6)c5C4)nc3C(=O)O)cc2)C(C)(C)C)cc1 [I-383] | > 75% | 10 to 100 nM | > 75% | 10 to 100 nM | 6.00 to 7.00 | 5.00 to 6.00

Now from value to compound, other results behind:

Dmax (BCL-XL [1]) | DC50 (BCL-XL [1]) | Dmax (BCL-XL [2]) | DC50 (BCL-XL [2]) | pIC50 (MOLT-4 cells) | Compound | pIC50 (Caki-2 cells)
> 75% | < 10 nM | > 75% | 10 to 100 nM | > 7.00 | Cc1ncsc1-c1ccc([C@H](C)NC(=O)[C@@H]2C[C@@H](O)CN2C(=O)[C@@H](NC(=O)C2CCN(c3ccc(S(=O)(=O)NC(=O)c4nc(N5CCc6cccc(C(=O)Nc7nc8ccccc8s7)c6C5)ccc4-c4cnn(CC5CCCCC5)c4C)cc3)CC2)C(C)(C)C)cc1 [I-195] | 5.00 to 6.00
> 75% | 10 to 100 nM | 50 to 75% | 100 to 500 nM | > 7.00 | C#Cc1ccc([C@H](C)NC(=O)[C@@H]2C[C@@H](O)CN2C(=O)[C@@H](NC(=O)CCCCCC(=O)N2CCN(CC[C@H](CSc3ccccc3)Nc3ccc(S(=O)(=O)NC(=O)c4ccc(N5CCN(CC6=C(c7ccc(Cl)cc7)CCC(C)(C)C6)CC5)cc4)cc3S(=O)(=O)C(F)(F)F)CC2)C(C)(C)C)cc1 [I-388] | < 5.00
> 75% | 10 to 100 nM | < 50% | > 1000 nM | > 7.00 | Cc1ncsc1-c1ccc(CNC(=O)[C@@H]2C[C@@H](O)CN2C(=O)[C@@H](NC(=O)CCCCCC(=O)N2CCN(CC[C@H](CSc3ccccc3)Nc3ccc(S(=O)(=O)NC(=O)c4ccc(N5CCN(CC6=C(c7ccc(Cl)cc7)CCC(C)(C)C6)CC5)cc4)cc3S(=O)(=O)C(F)(F)F)CC2)C(C)(C)C)cc1 [I-389] | 5.00 to 6.00
